Data published in ChEMBL document CHEMBL1201862, “PubChem BioAssay data set” (2004).
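All cell lines were grown in 96-well plates and treated with compound for 48 hours. Abbreviation: GI50, concentration required for 50% inhibition of growth.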 Active and inactive are the calls of the source. Cut-off read from the data, not from the text of the source: active = GI50 up to about 1.1 µM and inactive = higher.

Experiments:
Assay in all cases: NCI-60 cell line screen, 48 h
MDA-MB-435 = tested on: MDA-MB-435
HL-60 = tested on: HL-60
HCT-116 = tested on: HCT-116
CAKI-1 = tested on: CAKI-1
NCI-H522 = tested on: NCI-H522
MOLT-4 = tested on: MOLT-4
EKVX = tested on: EKVX
KM12 = tested on: KM12
U-251 = tested on: U-251
OVCAR-5 = tested on: OVCAR-5
SK-MEL-28 = tested on: SK-MEL-28
T47D = tested on: T47D
M14 = tested on: M14
SF-268 = tested on: SF-268
Malme-3M = tested on: Malme-3M
DU-145 = tested on: DU-145
IGROV-1 = tested on: IGROV-1
MCF7 = tested on: MCF7
BT-549 = tested on: BT-549

Structure (SMILES)	GI50 (MDA-MB-435)	GI50 (HL-60)	GI50 (HCT-116)	GI50 (CAKI-1)	GI50 (NCI-H522)	GI50 (MOLT-4)	GI50 (EKVX)	GI50 (KM12)	GI50 (U-251)	GI50 (OVCAR-5)	GI50 (SK-MEL-28)	GI50 (T47D)	GI50 (M14)	GI50 (SF-268)	GI50 (Malme-3M)	GI50 (DU-145)	GI50 (IGROV-1)	GI50 (MCF7)	GI50 (BT-549)
NC(=S)N/N=C\c1ccc(OCc2cccc(COc3ccc(/C=N/NC(N)=S)cc3)n2)cc1	63.8 µM (inactive)	10.5 µM (inactive)	12 µM (inactive)	17 µM (inactive)	2.88 µM (inactive)	34.7 µM (inactive)	> 100 µM (inactive)	> 100 µM (inactive)	45.4 µM (inactive)	17.3 µM (inactive)	22.9 µM (inactive)	0.164 µM (active)	43.4 µM (inactive)	> 100 µM (inactive)	86.5 µM (inactive)	34.8 µM (inactive)	14.8 µM (inactive)	32.5 µM (inactive)	2.39 µM (inactive)
CC[C@@H](C)[C@H](NC(=O)[C@H](Cc1ccccc1)NCC(F)(F)F)C(=O)OC(C)(C)C	> 100 µM (inactive)	> 100 µM (inactive)	> 100 µM (inactive)	> 100 µM (inactive)	> 100 µM (inactive)	67.3 µM (inactive)	> 100 µM (inactive)	> 100 µM (inactive)	> 100 µM (inactive)	> 100 µM (inactive)	> 100 µM (inactive)	25.6 µM (inactive)	> 100 µM (inactive)	> 100 µM (inactive)	> 100 µM (inactive)	> 100 µM (inactive)	> 100 µM (inactive)	> 100 µM (inactive)	> 100 µM (inactive)
Cc1nc2sc3cccc(Cl)c3n2c(=O)c1/N=N/c1ccc(Cl)cc1	> 100 µM (inactive)	> 100 µM (inactive)	88.1 µM (inactive)	> 100 µM (inactive)	45.7 µM (inactive)	44.9 µM (inactive)	38.5 µM (inactive)	> 100 µM (inactive)	> 100 µM (inactive)	> 100 µM (inactive)	> 100 µM (inactive)	45.3 µM (inactive)	> 100 µM (inactive)	58.9 µM (inactive)	70.6 µM (inactive)	> 100 µM (inactive)	63.8 µM (inactive)	87.5 µM (inactive)	93.8 µM (inactive)
CC(C)(C)OC(=O)C1=C(C(=O)OC(C)(C)C)SC2(S1)C(C(=O)OC(C)(C)C)=C(C(=O)OC(C)(C)C)Sc1c2ssc1=O	27.5 µM (inactive)	39.4 µM (inactive)	47.3 µM (inactive)	83.8 µM (inactive)	49.3 µM (inactive)	7.67 µM (inactive)	79.3 µM (inactive)	> 100 µM (inactive)	49.1 µM (inactive)	59.8 µM (inactive)	73.1 µM (inactive)	61 µM (inactive)	95.7 µM (inactive)	60.1 µM (inactive)	> 100 µM (inactive)	31 µM (inactive)	59.4 µM (inactive)	49.2 µM (inactive)	67 µM (inactive)
COC(=O)C1=C(OC(=O)/C(=C/c2ccccc2)c2ccc(Cl)cc2Cl)C(C(=O)OC)[C@@]2(O)[C@@H](C(=O)OC)[C@H](C)C[C@@H]1[C@@H]2C(=O)OC (stereo partly drawn)	> 100 µM (inactive)	> 100 µM (inactive)	> 100 µM (inactive)	> 100 µM (inactive)	> 100 µM (inactive)	> 100 µM (inactive)	> 100 µM (inactive)	> 100 µM (inactive)	> 100 µM (inactive)	> 100 µM (inactive)	> 100 µM (inactive)	> 100 µM (inactive)	> 100 µM (inactive)	> 100 µM (inactive)	> 100 µM (inactive)	> 100 µM (inactive)	> 100 µM (inactive)	> 100 µM (inactive)	> 100 µM (inactive)
N#Cc1c(NC(=O)C(F)(F)F)sc2c3c(=O)c4ccccc4c(=O)c=3oc3ccccc3c12	17.1 µM (inactive)	4.46 µM (inactive)	11.9 µM (inactive)	15.4 µM (inactive)	7.89 µM (inactive)	11.7 µM (inactive)	24.6 µM (inactive)	9.84 µM (inactive)	14.7 µM (inactive)	30.7 µM (inactive)	20.4 µM (inactive)	21.4 µM (inactive)	21.7 µM (inactive)	7.98 µM (inactive)	1.1 µM (active)	15.3 µM (inactive)	11.9 µM (inactive)	20.2 µM (inactive)	19.6 µM (inactive)
C=CCCCCCCCCCOC1C=CC(O)C(CO)O1 (stereo not drawn)	35.5 µM (inactive)	21.9 µM (inactive)	46.3 µM (inactive)	56 µM (inactive)	33.2 µM (inactive)	25.5 µM (inactive)	39.2 µM (inactive)	27.2 µM (inactive)	28.6 µM (inactive)	68.4 µM (inactive)	41.6 µM (inactive)	52.2 µM (inactive)	18.6 µM (inactive)	54.8 µM (inactive)	28.1 µM (inactive)	95.3 µM (inactive)	16.6 µM (inactive)	41.4 µM (inactive)	48.4 µM (inactive)
